Literature values in patent US20260335284A1, “STABLE MITOMYCIN CONCENTRATES” (STEPS BIOSCIENCES, INC., priority 2022, published 2026).

Settings: EP 0415430A1

Stability in water and in PEG (in water and also in PEG): very unstable
Stability in PG with finite percentage of water (5%) (solutions at 5 mg/mL): most stable
Structure (SMILES): CO[C@@]12[C@H](COC(N)=O)C3=C(C(=O)C(C)=C(N)C3=O)N1C[C@@H]1N[C@@H]12 [MMC, Mitomycin C]
